# Data: US9113629B2, “4-amino-6-(4-substituted-phenyl)-picolinates and 6-amino-2-(4-substituted-phenyl)-pyrimidine-4-carboxylates and their use as herbicides” (DOW AGROSCIENCES LLC, priority 2013, dated 2015)
# Like-named read-outs stand apart in the source and are kept apart here.
# Key:
# [1] = test system: SASKR: Russian thistle (Salsola iberica); experiment: Post-emergent Test III, herbicidal activity in wheat and barley; assay type: in vivo; settings: for pest or weed control at 35 g/ha / pest or weed control at 70 g/ha: Salsola tragus, post-emergence, 504 h; for pest or weed control at 35 g/ha: 35 g ai/ha; for pest or weed control at 70 g/ha: 70 g ai/ha; for GR50 SASKR: dose for 50 percent growth reduction; for GR50 SASKR / GR80 SASKR: probit analysis; for GR80 SASKR: dose for 80 percent growth reduction
# Summary of the method: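 Plants at the second to third true-leaf stage, grown in a greenhouse at about 18/17 °C with a 14 h photoperiod, were sprayed post-emergence at 187 L/ha with the high rate and ½× to 1/16× serial dilutions in an acetone/DMSO/crop-oil/surfactant carrier. Injury was rated visually at 21 d on a 0–100% scale, and GR20–GR90 were derived by probit analysis.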
# [2] = test system: TRZSS; experiment: Pre-emergent Test III, preemergent activity in wheat and barley; assay type: in vivo, Triticum aestivum; settings: for GR20 TRZSS: 21 days after application, dose to kill or control 20%, probit analysis
# Experimental: (§1) Pre-emergent Test III. Seeds of test species were planted into square plastic pots (10 cm wide) containing sandy loam soil. After planting, all pots were sub-irrigated 16 h prior to compound application. A weighed amount, determined by the highest rate to be tested, of each test compound was placed in a 25 mL glass vial and was dissolved in 4 mL of a 97:3 v/v mixture of acetone and DMSO to obtain concentrated stock solutions. […] The concentrated stock solutions obtained were diluted with 20 mL of an aqueous mixture containing water and 0.02% w/v (weight/volume) of Triton X-155 to obtain spray solutions containing the highest application rates. Additional application rates were obtained by serial dilution of 12 mL of the high rate solution into a solution containing 2 mL of 97:3 v/v mixture of acetone and DMSO and 10 mL of an aqueous mixture containing water and 0.02% w/v (weight/volume) of Triton X-155 to obtain 1⁄2×, 1⁄4×, 1⁄8× and 1/16× rates of the high rate. Compound requirements are based upon a 12 mL application volume at a rate of 187 liters per hectare (L/ha). Formulated compounds were applied to the soil surface with an overhead Mandel track sprayer equipped with […] nozzles calibrated to deliver 187 L/ha over an application area of 0.503 square meters. Control pots were sprayed in the same manner with the solvent blank. The treated pots and control pots were placed in a greenhouse as described above and watered through surface irrigation. After 21 d, the condition of the test pots as compared with that of the untreated pots was determined visually and scored on a scale of 0 to 100 percent where 0 corresponds to no herbicidal effect and 100 corresponds to plant death or lack of emergence from the soil. By applying the well-accepted probit analysis as described by J. Berkson in Journal of the American Statistical Society, 48, 565 (1953) and by D. Finney in “Probit Analysis” Cambridge University Press (1952), the above data can be used to calculate GR20, GR50, GR80 and GR90 values, which are defined as growth reduction factors that correspond to the effective dose of herbicide required to kill or control 20 percent, 50 percent, 80 percent or 90 percent, respectively, of a target plant.
# [3] = test system: HORSS; experiment: as above; assay type: in vivo, Hordeum vulgare; settings: for GR20 HORSS: 21 days after application, dose to kill or control 20%, probit analysis
# Experimental: as §1
# [4] = test system: APESV; experiment: as above; assay type: in vivo, Apera spica-venti; settings: for GR50 APESV / GR80 APESV: 21 days after application, probit analysis; for GR50 APESV: dose to kill or control 50%; for GR80 APESV: dose to kill or control 80%
# Experimental: as §1
# [5] = test system: LAMSS; experiment: as above; assay type: in vivo; settings: for GR50 LAMSS / GR80 LAMSS: 21 days after application, probit analysis; for GR50 LAMSS: dose to kill or control 50%; for GR80 LAMSS: dose to kill or control 80%
# Experimental: as §1
# [6] = test system: LOLSS; experiment: as above; assay type: in vivo, Lolium multiflorum, Lolium rigidum; settings: for GR50 LOLSS / GR80 LOLSS: 21 days after application, probit analysis; for GR50 LOLSS: dose to kill or control 50%; for GR80 LOLSS: dose to kill or control 80%
# Experimental: as §1
# [7] = test system: SETVI; experiment: as above; assay type: in vivo, Setaria viridis; settings: for GR50 SETVI / GR80 SETVI: 21 days after application, probit analysis; for GR50 SETVI: dose to kill or control 50%; for GR80 SETVI: dose to kill or control 80%
# Experimental: as §1
# [8] = Table 8, post-emergent, 21 d, read-out: Visual Growth Reduction (%) 21 Days After Application SASKR
# [9] = 21 days after application, read-out: Visual Gorowth Reduction (%) 21 days After Application SASKR
smiles,measurement,setting,value
Nc1cc(-c2cc(F)c(Br)cc2F)nc(C(=O)O)c1Cl [Compound 3],pest or weed control at 35 g/ha,[1]; [8],75 to 84%
same,pest or weed control at 70 g/ha,[1]; [8],85 to 94%
same,GR50 SASKR,"[1]; Table 8, 21 d",2 g ai/ha
same,GR80 SASKR,"[1]; Table 8, 21 d",28 g ai/ha
Nc1c(F)c(-c2ccc(Br)cc2)nc(C(=O)O)c1Cl [Compound 20],"Visual Growth Reduction (%) 21 Days After Application, TRZSS",[2]; 35 g ai/ha,E (45-59)
same,"Visual Growth Reduction (%) 21 Days After Application, TRZSS",[2]; 70 g ai/ha,E (45-59)
same,GR20 TRZSS,[2],10 g ai/ha
same,"Visual Growth Reduction (%) 21 Days After Application, HORSS",[3]; 35 g ai/ha,F (30-44)
same,"Visual Growth Reduction (%) 21 Days After Application, HORSS",[3]; 70 g ai/ha,E (45-59)
same,GR20 HORSS,[3],17 g ai/ha
same,"Visual Growth Reduction (%) 21 Days After Application, APESV",[4]; 35 g ai/ha,A (95-100)
same,"Visual Growth Reduction (%) 21 Days After Application, APESV",[4]; 70 g ai/ha,A (95-100)
same,GR50 APESV,[4],6 g ai/ha
same,GR80 APESV,[4],16 g ai/ha
same,"Visual Growth Reduction (%) 21 Days After Application, LAMSS",[5]; 35 g ai/ha,A (95-100)
same,"Visual Growth Reduction (%) 21 Days After Application, LAMSS",[5]; 70 g ai/ha,A (95-100)
same,GR50 LAMSS,[5],6 g ai/ha
same,GR80 LAMSS,[5],9 g ai/ha
same,"Visual Growth Reduction (%) 21 Days After Application, LOLSS",[6]; 35 g ai/ha,G (0-29)
same,"Visual Growth Reduction (%) 21 Days After Application, LOLSS",[6]; 70 g ai/ha,E (45-59)
same,GR50 LOLSS,[6],>70 g ai/ha
same,GR80 LOLSS,[6],>70 g ai/ha
same,"Visual Growth Reduction (%) 21 Days After Application, SETVI",[7]; 35 g ai/ha,F (30-44)
same,"Visual Growth Reduction (%) 21 Days After Application, SETVI",[7]; 70 g ai/ha,B (85-94)
same,GR50 SETVI,[7],32 g ai/ha
same,GR80 SETVI,[7],71 g ai/ha
"COC(=O)c1nc(-c2ccc(I)c(F)c2)nc(N)c1OC [Compound 27, Methyl 6-amino-2-(3-fluoro-4-iodophenyl)-5-methoxypyrimidine-4-carboxylate]",pest or weed control at 35 g/ha,[1]; [8],60 to 74%
same,pest or weed control at 70 g/ha,[1]; [8],60 to 74%
same,GR50 SASKR,"[1]; Table 8, 21 d",22 g ai/ha
same,GR80 SASKR,"[1]; Table 8, 21 d",116 g ai/ha
"COc1c(N)nc(-c2ccc(I)c(F)c2)nc1C(=O)O [Compound 37, 6-Amino-2-(3-fluoro-4-iodophenyl)-5-methoxypyrimidine-4-carboxylic acid]",pest or weed control at 35 g/ha,[1]; [8],45 to 59%
same,pest or weed control at 70 g/ha,[1]; [8],60 to 74%
same,GR50 SASKR,"[1]; Table 8, 21 d",33 g ai/ha
same,GR80 SASKR,"[1]; Table 8, 21 d",104 g ai/ha
"Nc1c(F)c(-c2cc(F)c(Br)cc2F)nc(C(=O)O)c1Cl [Compound 42, 4-amino-6-(4-bromo-2,5-difluorophenyl)-3-chloro-5-fluoropicolinic acid]","Visual Growth Reduction (%) 21 Days After Application, TRZSS",[2]; 35 g ai/ha,E (45-59)
same,"Visual Growth Reduction (%) 21 Days After Application, TRZSS",[2]; 70 g ai/ha,E (45-59)
same,GR20 TRZSS,[2],5 g ai/ha
same,"Visual Growth Reduction (%) 21 Days After Application, HORSS",[3]; 35 g ai/ha,F (30-44)
same,"Visual Growth Reduction (%) 21 Days After Application, HORSS",[3]; 70 g ai/ha,E (45-59)
same,GR20 HORSS,[3],11 g ai/ha
same,"Visual Growth Reduction (%) 21 Days After Application, APESV",[4]; 35 g ai/ha,B (85-94)
same,"Visual Growth Reduction (%) 21 Days After Application, APESV",[4]; 70 g ai/ha,A (95-100)
same,GR50 APESV,[4],12 g ai/ha
same,GR80 APESV,[4],27 g ai/ha
same,"Visual Growth Reduction (%) 21 Days After Application, LAMSS",[5]; 35 g ai/ha,A (95-100)
same,"Visual Growth Reduction (%) 21 Days After Application, LAMSS",[5]; 70 g ai/ha,A (95-100)
same,GR50 LAMSS,[5],1 g ai/ha
same,GR80 LAMSS,[5],1 g ai/ha
same,"Visual Growth Reduction (%) 21 Days After Application, LOLSS",[6]; 35 g ai/ha,G (0-29)
same,"Visual Growth Reduction (%) 21 Days After Application, LOLSS",[6]; 70 g ai/ha,G (0-29)
same,GR50 LOLSS,[6],>70 g ai/ha
same,GR80 LOLSS,[6],>70 g ai/ha
same,"Visual Growth Reduction (%) 21 Days After Application, SETVI",[7]; 35 g ai/ha,E (45-59)
same,"Visual Growth Reduction (%) 21 Days After Application, SETVI",[7]; 70 g ai/ha,D (60-74)
same,GR50 SETVI,[7],36 g ai/ha
same,GR80 SETVI,[7],>70 g ai/ha
"Nc1c(Cl)c(C(=O)O)nc(-c2ccc(Br)c(F)c2)c1Cl [Compound 43, 4-Amino-6-(4-bromo-3-fluorophenyl)-3,5-dichloropicolinic acid]",pest or weed control at 35 g/ha,[1]; [8],75 to 84%
same,pest or weed control at 70 g/ha,[1]; [8],75 to 84%
same,GR50 SASKR,"[1]; Table 8, 21 d",3 g ai/ha
same,GR80 SASKR,"[1]; Table 8, 21 d",61 g ai/ha
Nc1c(F)c(-c2cc(F)c(I)cc2F)nc(C(=O)O)c1Cl [Compound 69],pest or weed control at 35 g/ha,[1]; [9],85 to 94%
same,pest or weed control at 70 g/ha,[1]; [9],85 to 94%
same,GR50 SASKR,[1]; 21 days after application,7 g ai/ha
same,GR80 SASKR,[1]; 21 days after application,29 g ai/ha
